The text below walks through data of US8481597B2, “Use of (-) (3-trihalomethylphenoxy) (4-halophenyl) acetic acid derivatives for treatment of insulin resistance, type 2 diabetes, hyperlipidemia and hyperuricemia” (Metabolex, Inc., priority 1999, dated 2013).

Structures are written as SMILES. Entries after “also recorded” stand apart in the source; their conditions may differ.

Data set [1] concerns C57BL/6J ob/ob mice. Kind of data set: Glucose lowering of (±) and (−) halofenate analogs in ob/ob mice (Example 12). It is filed as in vivo. The conditions noted are these: for time points with significantly reduced plasma glucose concentrations: 150 mg/kg oral single dose.
In data set [2] the test system is C57BL/6J ob/ob mice. Kind of data set: Time course of glucose-lowering after a single oral dose in diabetic ob/ob mice (Example 8). It is filed as in vivo. The conditions noted are these: single oral dose 250 mg/kg; for plasma glucose at 24 hours: vehicle 408±16.2.
For data set [3] the following is noted: cited from earlier work.
Data set [4] has as its system Zucker fa/fa rats. In words: Oral glucose challenge in Zucker fatty rats (Example 10). The class given is in vivo. The conditions noted are these: racemate 100 mg/kg, enantiomers 50 and 100 mg/kg. The procedure: (§1) Prior to treatment, rats were assigned to 6 groups based on body weight. Each treatment group consisted of 8 rats. […] The gavage volume was 10 ml/kg. All rats received an oral glucose challenge (1.9 g/kg) 5.5 hours after the treatment and 4 hours after withdrawal of the food. Blood samples were taken at 0, 15, 30, 60, 90, 120, and 180 minutes following the glucose challenge for plasma glucose measurement. […] On day 5, rats received the intravenous insulin (0.75 U/kg) 5.5 hours after the last dose and 4 hours after withdrawal of the food. Blood samples were taken at 3, 6, 9, 12, 15 and 18 minutes following the insulin injection for plasma glucose measurement.

For the next data set, the target named is T1, cyclooxygenase 1 (COX-1) (Homo sapiens, UniProt P23219).
T1 construct: was conducted using fresh human blood from healthy donors; endogenous in cells; host or cells: heparinized fresh human whole blood, stimulated with calcium ionophore A23187
In words: COX-1 inhibition in human whole blood assay, TXB2 production (Example 19). The class given is cell-based. The procedure: An assay for cyclooxygenase 1 (COX-1) inhibition by the compounds of the present invention was conducted using fresh human blood from healthy donors. […] The enzyme was activated by the commercially available calcium ionophore A23187.
This bioassay is based on the production of thromboxane B2 (TXB2) after COX-1 activation. When activated, COX-1 generates prostaglandin H2 which is then converted to thromboxane A2 (TXA2) by thromboxane synthase and then finally to thromboxane B2 by non-enzymatic […]. In addition, PGE2 levels were measured to exclude inhibition of thromboxane synthase. This assay allows discrimination between COX-1 and thromboxane synthase inhibition.
TXB2 and PGE2 were measured by commercially available immunoassay kits purchased from Assay Designs, Inc. (Ann Arbor, Mich.). All other chemicals were from Sigma except as noted. […] Immediately before use, all compounds were diluted 1:10 in RPMI-1640 medium (Gibco BRL, 11875-093) to make a 10× concentrated stock solution. The 10×RPMI-1640 stock solutions of the calcium ionophore were prepared in an identical manner. […] COX-1 was then activated by adding 25 microliters of the 10× stock solution of 25 micromolar calcium ionophore. The plates were shaken for 10 minutes at room temperature and then incubated at 37° C. for an additional 30 minutes. After these incubation times, the plates were centrifuged at 2,000 g for 5 minutes. Two microliters of plasma were taken from each reaction for the measurement of TXB2 using an enzyme immunoassay kit from Assay Designs, Inc. The PGE2 level in the same reaction was measured using a PGE2 enzyme immunoassay kit from Assay Designs, Inc.
The results of the assay are presented as the percent inhibition of COX-1 activity.

In data set [5] the test system is Zucker diabetic fatty (ZDF) rats. In words: Lipid lowering in Zucker Diabetic Fatty rats (Example 11). It is filed as in vivo. The following applies: for plasma cholesterol, in words: Experiment I, 13 days, racemate 50 mg/kg/day, enantiomers 25 mg/kg/day. Here is the method: Male Zucker diabetic fatty (ZDF) rats were obtained from GMI Laboratories (Indianapolis, Ind.) at 9 weeks of age. Vehicle or enantiomers of halofenate administered by oral gavage on a daily basis starting at 74 days of age. Initial blood samples were obtained for analysis one day before treatment and at the indicated times in the treatment protocol. Blood was analyzed for plasma triglyceride and cholesterol by standard techniques.

In data set [6] the test system is C57BL/6J ob/ob mice. In words: Glucose and insulin lowering on daily oral administration in diabetic ob/ob mice (Example 9). The class given is in vivo. The following applies: for plasma glucose relative to control animals, in words / plasma insulin relative to vehicle control, in words: daily oral, racemate 250 mg/kg/day, enantiomers 125 and 250 mg/kg/day. Here is the method:
The gavage volume was 10 ml/kg.

The test system of data set [7] is oxonic acid induced hyperuricemic rats. Kind of data set: Plasma uric acid in oxonic acid induced hyperuricemic rats (Example 17). The class given is in vivo, SD rats. The following applies: oral 50 mg/kg for 3 days, 100 mg/kg on the 4th day; blood 6 hours post gavage on day 4. An excerpt: Male SD rats, weight 275-300 g were purchased from Charles River. […] To establish a hyperuricemic state, animals were put on a diet containing 2.5% (w/w) of oxonic acid (Sigma Chemical Co, St. Louis, Mo., USA) throughout the experiment. Oxonic acid elevates plasma uric acid by inhibiting uricase. Rats were screened for plasma uric acid levels 3 days after they were placed on the diet, and those that had extreme plasma uric acid levels were excluded. Rats were assigned to one of three groups and the mean uric acid levels were equivalent in each group. […] Oxonic acid was delivered in a liquid formulation containing 0.9% (w/v) methylcellulose. The gavage and injection volumes were 5 ml/kg. Blood samples were taken at 6 hours post oral gavage on day 4. Plasma uric acid levels were determined colorimetrically using the Infinity Uric Acid Reagent (Sigma Chemical Co, St. Louis, Mo., USA).

The next data set concerns ZDF rats. Kind of data set: Plasma glucose in ZDF rats, (−) halofenate vs (+) halofenate (Example 13). It is filed as in vivo. The following applies: 50 mg/kg oral once a day for 3 days. The procedure:
Male 8-9 week old ZDF rats were purchased from Genetic Models, Inc. (Indianapolis, Ind.). […] Rats that had 4-hour fasting plasma glucose levels between 200 and 500 mg/dL were used. […] The gavage volume was 5 ml/kg. Blood samples were taken at 5 hours post dose on day 2 and 3.

Data set [8] has as its system Zucker fa/fa rats. Kind of data set: Short insulin tolerance test in Zucker fatty rats (Example 10). The following applies: 50 mg/kg/day oral for 5 days. It is filed as in vivo. The procedure: as §1
The target in another data set is CYP2C9 (Homo sapiens, UniProt P11712).
The mark [9] stands for this setting: Experiment II, 37.5 mg/kg/day (High dose).

Chain of CYP2C9 (P11712 whole entry): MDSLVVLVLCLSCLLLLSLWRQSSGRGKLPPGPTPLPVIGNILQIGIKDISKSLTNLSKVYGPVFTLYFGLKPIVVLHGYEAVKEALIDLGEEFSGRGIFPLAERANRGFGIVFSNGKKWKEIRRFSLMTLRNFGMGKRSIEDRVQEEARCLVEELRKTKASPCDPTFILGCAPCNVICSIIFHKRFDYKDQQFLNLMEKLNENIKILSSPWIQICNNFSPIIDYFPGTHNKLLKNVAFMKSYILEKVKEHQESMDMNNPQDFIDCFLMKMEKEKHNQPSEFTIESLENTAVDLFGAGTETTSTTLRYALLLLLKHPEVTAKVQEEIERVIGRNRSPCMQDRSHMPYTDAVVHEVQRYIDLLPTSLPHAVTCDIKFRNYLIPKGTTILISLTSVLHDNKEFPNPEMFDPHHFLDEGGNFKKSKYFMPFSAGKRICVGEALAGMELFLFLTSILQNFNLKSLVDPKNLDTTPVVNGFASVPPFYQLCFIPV
T1 sequence (P23219 24-599): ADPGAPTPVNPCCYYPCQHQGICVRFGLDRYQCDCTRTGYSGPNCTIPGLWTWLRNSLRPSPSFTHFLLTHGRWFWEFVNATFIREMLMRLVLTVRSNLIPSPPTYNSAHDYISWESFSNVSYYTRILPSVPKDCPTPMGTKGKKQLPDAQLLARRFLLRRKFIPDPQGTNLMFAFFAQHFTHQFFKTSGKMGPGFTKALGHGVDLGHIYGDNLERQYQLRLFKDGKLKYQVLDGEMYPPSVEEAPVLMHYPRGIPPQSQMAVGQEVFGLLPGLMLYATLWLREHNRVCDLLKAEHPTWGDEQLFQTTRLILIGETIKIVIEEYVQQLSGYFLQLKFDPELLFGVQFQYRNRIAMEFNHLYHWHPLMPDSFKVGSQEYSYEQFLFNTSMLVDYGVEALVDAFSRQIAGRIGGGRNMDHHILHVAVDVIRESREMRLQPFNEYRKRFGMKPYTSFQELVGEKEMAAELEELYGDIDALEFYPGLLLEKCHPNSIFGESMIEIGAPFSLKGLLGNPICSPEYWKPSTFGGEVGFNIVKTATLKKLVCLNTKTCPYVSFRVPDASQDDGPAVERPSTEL

Turning to `CN(C)CCOC(=O)C(Oc1cccc(C(F)(F)F)c1)c1ccc(Cl)cc1` (racemic) [(±)Analog 35], the “6 hours Glucose” value in the data set on C57BL/6J ob/ob mice [1] (125 mg/kg oral once a day, 6 hours after first dose) was determined as 319.6 ± 26.7 mg/dL. Also, the “30 hours Glucose” value with C57BL/6J ob/ob mice [1] (125 mg/kg oral once a day, 6 hours after second dose) came to 276.8 ± 17.6 mg/dL. Besides, the “54 hours Glucose” value in the data set with C57BL/6J ob/ob mice [1] (125 mg/kg oral once a day, 6 hours after third dose) stood at 286.2 ± 31.5 mg/dL. In addition, the “Predose Glucose” value in the data set on C57BL/6J ob/ob mice [1] (baseline before dosing, group later given 125 mg/kg oral once a day) is 387.0 ± 18.0 mg/dL.

In the case of `NC(=O)COC(=O)C(Oc1cccc(C(F)(F)F)c1)c1ccc(Cl)cc1` (racemic) [(±)Analog 37], the “time points with significantly lowered plasma glucose concentrations” value in the data set with C57BL/6J ob/ob mice [1] (125 mg/kg oral once a day) was determined as 54 h.

For orientation: IC50 means the concentration that inhibits the measured activity by half. A lower IC50 goes with higher potency. With `CC(=O)NCCOC(=O)C(Oc1cccc(C(F)(F)F)c1)c1ccc(Cl)cc1` (racemic) [racemic halofenate, 2-acetamidoethyl (4-chlorophenyl) (3-trifluoromethylphenoxy)acetate, reference compound], in the data set with C57BL/6J ob/ob mice [2], the “time course of glucose-lowering, in words” value was “significantly reduced plasma glucose concentrations at most of the timepoints”; the “time of peak glucose-lowering activity” value was 9 h; the “plasma glucose at 24 hours” value amounted to 259.3 ± 20.8 mg/dL. Further, the “side effects in patients” value in [3] (previous clinical studies (Friedberg et al. 1986)) was “gastrointestinal bleeding from stomach and peptic ulcers; also recorded: increased risk of gastrointestinal side effects such as upper gastrointestinal ulcers and bleeding”. The “effect on glucose in patients with diabetes treated with the drug alone” value in data set [3] (previous studies from the 1970's) is reported as “minimal effect on glucose”. Further, in the data set on Zucker fa/fa rats [4], the “incremental glucose area under the curve (AUC) relative to vehicle control, in words” value is listed as “not statistically significant”. Moreover, the “plasma glucose after oral glucose challenge, in words” value in the data set with Zucker fa/fa rats [4] (single oral dose 5.5 hours before challenge) is listed as “The plasma glucose was reduced”. At cyclooxygenase 1 (COX-1), this compound showed an IC50 of roughly 1000 µM. For the same compound, in data set [5], the “plasma cholesterol, in words” value is recorded as “plasma cholesterol declined with treatment”. In the data set on C57BL/6J ob/ob mice [6], the “plasma glucose relative to control animals, in words” value is reported as “Significant decreases in glucose levels” and the “plasma insulin relative to vehicle control, in words” value is on record as “insulins were lower”.

With `CC(=O)NCCOC(=O)C(Oc1cccc(C(F)(F)F)c1)c1ccc(Cl)cc1` (single isomer, unassigned; (+)) [(+) halofenate, (+) 2-Acetamidoethyl 4-Chlorophenyl-(3-trifluoromethylphenoxy)-acetate, reference compound], in data set [7], the “plasma uric acid levels, in words” value is “lowered plasma uric acid levels, but it was not statistically significant”. In the data set on C57BL/6J ob/ob mice [2], the “earliest time of plasma glucose reduction / significant activity” value turned out to be 4.5 h, the “time of peak glucose-lowering activity” value was 7.5 h and the “plasma glucose at 24 hours” value stood at 306 ± 28.5 mg/dL. In addition, the “incremental glucose area under the curve (AUC) relative to vehicle control, in words” value in the data set with Zucker fa/fa rats [4] was “not statistically significant”. Besides, the “plasma cholesterol, in words” value in [5] is reported as “remained relatively constant”. In data set [5] (setting [9]), the “days of treatment with significantly lower plasma cholesterol vs control” value is on record as 7 days and the “plasma triglyceride, in words” value was “significant lowering of plasma triglyceride”. Besides, the “overnight fasting plasma insulin after 5 days treatment, in words” value with C57BL/6J ob/ob mice [6] (125 mg/kg/day oral, ob/ob mice) is recorded as “did not lower plasma insulin”. In addition, in the data set with C57BL/6J ob/ob mice [6] (250 mg/kg/day oral, ob/ob mice), the “overnight fasting plasma insulin after 5 days treatment, in words” value is listed as “resulted in a decrease in plasma insulin”. Besides, the “plasma glucose following an overnight fast after 5 days treatment” value in the data set on C57BL/6J ob/ob mice [6] (250 mg/kg/day oral, ob/ob mice, control 185.4±12.3) was determined as 127.2 ± 9.7 mg/dL. Also, in the data set on C57BL/6J ob/ob mice [6], the “plasma glucose relative to control animals, in words” value is listed as “Significant decreases in glucose levels” and the “plasma insulin relative to vehicle control, in words” value is reported as “insulins were lower”. In the data set on ZDF rats, the “plasma glucose concentrations compared to vehicle-treated animals, in words” value was “failed to reduce plasma glucose concentrations”. Besides, the “insulin sensitivity (slope of decline in glucose after i.v. insulin), in words” value with Zucker fa/fa rats [8] is on record as “small effect on insulin sensitivity that was not significantly different from the vehicle-treated control”.

For `CC(=O)NCCOC(=O)C(Oc1cccc(C(F)(F)F)c1)c1ccc(Br)cc1` (single isomer, unassigned; (-)) [(−)Analog 29], the “time points with significantly reduced plasma glucose concentrations” value with C57BL/6J ob/ob mice [1] was 6 h.

As for `O=C(NCCOC(=O)C(Oc1cccc(C(F)(F)F)c1)c1ccc(Cl)cc1)c1ccccc1` (single isomer, unassigned; (-)) [(−)Analog 36], the “time points with significantly reduced plasma glucose concentrations” value in the data set on C57BL/6J ob/ob mice [1] is 6 h.

For `NC(=O)COC(=O)C(Oc1cccc(C(F)(F)F)c1)c1ccc(Cl)cc1` (single isomer, unassigned; (-)) [(−)Analog 37], in the data set on C57BL/6J ob/ob mice [1], the “time points with significantly reduced plasma glucose concentrations” value was 6 h.

Turning to `CN(C)C(=O)COC(=O)C(Oc1cccc(C(F)(F)F)c1)c1ccc(Cl)cc1` (single isomer, unassigned; (-)) [(−)Analog 38], the “time points with significantly reduced plasma glucose concentrations” value in the data set on C57BL/6J ob/ob mice [1] was determined as 6 h.

Regarding `Nc1ccc(S(=O)(=O)Nc2ccnn2-c2ccccc2)cc1` [SFZ, sulfaphenazole, reference compound], the “4-OH TB Production” value at CYP2C9 is “BQL”. The “% Inhibition (Tolbutamide, CYP2C9)” value at CYP2C9 (both, human, microsomes) is listed as roughly 100%.
